# Measured values from ChEMBL document CHEMBL1201862, “PubChem BioAssay data set” (2004).
# Calls of active or inactive are those of the source.
# Experiments:
# [1] = biological target: T1, High affinity choline transporter 1 (Homo sapiens, UniProt Q9GZV3); test: human choline transporter blockers, potency – cell-based, 5-point CRC, membrane potential dye, dose response (AID 504840); format: functional
# T1 sequence (Q9GZV3 whole entry): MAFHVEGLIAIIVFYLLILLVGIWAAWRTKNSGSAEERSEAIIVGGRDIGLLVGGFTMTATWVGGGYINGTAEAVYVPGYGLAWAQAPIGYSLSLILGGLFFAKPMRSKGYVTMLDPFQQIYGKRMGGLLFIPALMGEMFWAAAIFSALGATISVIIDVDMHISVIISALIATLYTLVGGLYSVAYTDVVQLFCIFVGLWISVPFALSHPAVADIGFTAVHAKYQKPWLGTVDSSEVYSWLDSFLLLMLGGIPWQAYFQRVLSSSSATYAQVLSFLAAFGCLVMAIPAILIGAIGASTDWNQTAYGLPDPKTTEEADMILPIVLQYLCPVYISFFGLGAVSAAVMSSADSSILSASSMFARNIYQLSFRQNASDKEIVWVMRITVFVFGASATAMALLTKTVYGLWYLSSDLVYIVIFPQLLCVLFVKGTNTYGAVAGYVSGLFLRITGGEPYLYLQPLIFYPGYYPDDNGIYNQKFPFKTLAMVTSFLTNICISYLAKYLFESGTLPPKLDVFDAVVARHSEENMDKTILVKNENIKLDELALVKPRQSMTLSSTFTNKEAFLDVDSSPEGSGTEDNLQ
# Cytochrome P450 3A4 = Cytochrome P450 3A4 (Homo sapiens, UniProt P08684);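 further: CYP3A4 tested as one member of a cytochrome P450 panel screen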
# [2] = HIV-1 AD8 envelope cell-cell fusion blockers – cherry-pick, dose response (AID 652062); format: functional, cell-based;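 further: luciferase signal from cell-cell fusion driven by HIV-1 clade B AD8 Env; potency is for inhibitors of fusion seen as a drop in luminescence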
# [3] = biological target: T2, Polyadenylate-binding protein 1 (Homo sapiens, UniProt P11940); test: MLLE domain peptide-binding blockers, IC50 – biochemical, fluorescence polarization, FITC-PAM2 peptide, dose response (AID 602259); format: functional; details: read-out: IC50_Mean
# [4] = biological target: T2, Polyadenylate-binding protein 1; test: MLLE binding blockers, Cy5 peptide tracer – biochemical, fluorescence polarization, Cy5-PAM2 peptide, secondary, miRNA deadenylation inhibitor project, dose response (AID 602260); format: functional; details: read-out: IC50_Mean
# [5] = reduction of Shn3 3'UTR-driven luciferase in osteoblasts – cell-based, Clone20 osteoblasts, firefly luciferase, cherry-picked, dose response (AID 624132); format: functional;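 further: firefly luciferase luminescence from reporter carrying the Shn3 3'UTR in osteoblasts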
# [6] = loss of viability in HepG2 cells – cell-based, CellTiter-Glo, cherry-picked, cytotoxicity control for Shn3 inhibitor project, dose response (AID 624134); format: functional
# [7] = non-specific 3'UTR reporter inhibition in Clone20-Shn3RL – cell-based, Renilla luciferase, cherry-picked, counter-screen for Shn3 inhibitor project, dose response (AID 624133); format: functional
# [8] = Trypanosoma cruzi growth suppression in host cells – NIH3T3 host cells, beta-gal luminescence, confirmation (AID 2044); format: functional, cell-based;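 further: intracellular parasites grown in NIH/3T3 mouse fibroblasts as host cells; luminescent beta-galactosidase reporter signal from transgenic T. cruzi replicating inside host cells; inhibitors lower the luminescence signal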
# [9] = NIH3T3 cell viability loss – ATP luminescence, mouse fibroblasts, counter-screen, dose response (AID 2010); format: functional, cell-based;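 further: cells exposed to compound for about 90 hours before reading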
# [10] = microbe, parasite or virus in culture; format: functional; details: Mycobacterium tuberculosis
# cells [11] = format: functional, cell-based
# cells [12] = format: functional, cell-based; remark: listed apart in the source
# [13] = biological target: T3, Corticotropin-releasing factor receptor 2/Corticotropin-releasing factor-binding protein (Homo sapiens, UniProt P24387+Q13324); test: activators of CRF receptor 2 with binding protein – uHTS hits, confirmation (AID 602473); format: functional; details: read-out: EC50_Mean
# T3 sequence (Q13324 whole entry): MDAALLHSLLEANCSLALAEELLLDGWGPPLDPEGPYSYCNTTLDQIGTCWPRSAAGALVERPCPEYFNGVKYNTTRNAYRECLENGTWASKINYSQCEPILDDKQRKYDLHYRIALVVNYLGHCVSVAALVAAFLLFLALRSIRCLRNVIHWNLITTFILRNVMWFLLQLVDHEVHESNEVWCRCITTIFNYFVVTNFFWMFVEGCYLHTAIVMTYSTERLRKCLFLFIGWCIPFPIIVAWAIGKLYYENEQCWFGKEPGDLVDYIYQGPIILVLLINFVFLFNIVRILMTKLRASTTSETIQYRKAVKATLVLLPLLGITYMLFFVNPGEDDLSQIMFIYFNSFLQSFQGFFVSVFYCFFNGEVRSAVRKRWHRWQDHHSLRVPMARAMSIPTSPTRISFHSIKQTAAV
# T3 sequence (P24387 whole entry): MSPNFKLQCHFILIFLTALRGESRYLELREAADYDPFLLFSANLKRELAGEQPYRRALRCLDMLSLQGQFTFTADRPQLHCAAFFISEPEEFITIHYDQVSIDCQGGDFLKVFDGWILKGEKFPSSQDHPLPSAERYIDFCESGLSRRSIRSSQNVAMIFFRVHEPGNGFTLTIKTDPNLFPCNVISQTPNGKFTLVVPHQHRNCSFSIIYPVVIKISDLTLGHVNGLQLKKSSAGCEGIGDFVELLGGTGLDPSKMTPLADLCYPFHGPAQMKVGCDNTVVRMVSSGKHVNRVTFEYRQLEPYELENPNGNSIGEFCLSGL
# [14] = biological target: T4, Carboxy-terminal domain RNA polymerase II polypeptide A small phosphatase 1 (Homo sapiens, UniProt Q9GZU7); test: CTDSP1 inhibitors, concentration-response, biochemical, absorbance readout, ultra-high-throughput screen actives (AID 540297); format: functional
# T4 sequence (Q9GZU7 whole entry): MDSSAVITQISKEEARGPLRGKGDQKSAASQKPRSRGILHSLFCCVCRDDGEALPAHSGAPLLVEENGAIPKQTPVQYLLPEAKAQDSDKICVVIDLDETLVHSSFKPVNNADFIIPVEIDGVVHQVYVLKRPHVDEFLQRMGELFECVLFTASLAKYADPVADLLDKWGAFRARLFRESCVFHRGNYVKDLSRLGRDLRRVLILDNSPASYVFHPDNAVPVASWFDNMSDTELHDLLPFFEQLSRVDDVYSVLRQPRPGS
# [15] = blockers of HIV-1 envelope-mediated cell-cell fusion – cherry-pick, dose response (AID 652057); format: functional, cell-based
# [16] = blockers of HIV-1 ZM109 envelope-driven cell-cell fusion – HeLa effector, CEM target cells, luciferase, cherry-pick, dose response (AID 652058); format: functional, cell-based;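 further: luciferase signal from HIV-1 Env mediated cell-cell fusion of effector and target cells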
# T2 sequence (P11940 whole entry, the tested form may be a part): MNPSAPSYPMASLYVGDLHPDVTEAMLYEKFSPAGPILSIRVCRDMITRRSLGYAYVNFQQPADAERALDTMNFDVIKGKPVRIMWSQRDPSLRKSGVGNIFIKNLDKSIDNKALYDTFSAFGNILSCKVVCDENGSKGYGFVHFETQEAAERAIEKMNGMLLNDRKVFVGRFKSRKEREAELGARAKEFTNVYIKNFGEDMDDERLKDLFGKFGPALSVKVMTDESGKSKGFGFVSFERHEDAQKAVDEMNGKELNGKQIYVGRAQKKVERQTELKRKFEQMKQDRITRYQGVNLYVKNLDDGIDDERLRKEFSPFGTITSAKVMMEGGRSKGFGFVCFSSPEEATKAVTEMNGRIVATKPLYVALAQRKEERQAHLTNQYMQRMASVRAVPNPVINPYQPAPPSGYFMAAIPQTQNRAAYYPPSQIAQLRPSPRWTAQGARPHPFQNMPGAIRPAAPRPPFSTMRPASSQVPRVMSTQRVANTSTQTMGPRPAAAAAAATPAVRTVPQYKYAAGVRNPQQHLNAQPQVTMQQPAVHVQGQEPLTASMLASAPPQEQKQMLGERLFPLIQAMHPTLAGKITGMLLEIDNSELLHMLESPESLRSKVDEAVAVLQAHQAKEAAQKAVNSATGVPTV
# Cytochrome P450 3A4, sequence (P08684 whole entry, the tested form may be a part): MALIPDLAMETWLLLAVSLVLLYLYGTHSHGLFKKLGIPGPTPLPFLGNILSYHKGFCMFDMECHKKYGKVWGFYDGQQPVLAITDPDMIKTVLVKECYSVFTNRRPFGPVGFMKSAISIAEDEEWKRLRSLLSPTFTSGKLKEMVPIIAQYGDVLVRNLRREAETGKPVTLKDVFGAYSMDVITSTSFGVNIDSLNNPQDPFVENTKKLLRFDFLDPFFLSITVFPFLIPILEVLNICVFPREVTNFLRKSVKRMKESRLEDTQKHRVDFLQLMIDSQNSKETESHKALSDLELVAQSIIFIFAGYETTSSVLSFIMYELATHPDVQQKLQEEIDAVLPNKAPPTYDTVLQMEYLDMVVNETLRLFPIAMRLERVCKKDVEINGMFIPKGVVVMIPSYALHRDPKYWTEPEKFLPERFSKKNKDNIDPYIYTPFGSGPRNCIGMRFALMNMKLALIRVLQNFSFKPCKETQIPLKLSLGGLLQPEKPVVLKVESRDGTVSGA
structure (smiles),measurement,setting,value
CCc1cc2c(NCc3ccco3)ncnc2s1,IC50,[1],10 µM (active)
same,AC50,Cytochrome P450 3A4,25.1 µM (inconclusive)
same,AC50,[2],32.3 µM (active)
CN1C(=O)SC(Nc2ccccc2C(=O)O)C1=O (stereo not given),IC50,[3],> 66 µM (inactive)
same,IC50,[4],> 66 µM (inactive)
C=C[C@]1(C)C=C2C(=O)[C@@]3(O)OC(=O)[C@@]4(CCCC(C)(C)[C@H]34)[C@@]2(O)CC1 [SPHAEROPSIDIN A],AC50,[5],4.98 µM (active)
same,AC50,[6],12 µM (active)
same,AC50,[7],4.85 µM (active)
COc1cc2ccccc2cc1C(=O)Nc1ccc(Cc2ccncc2)cc1,EC50,[8],1.99 µM (active)
same,EC50,[9],8.08 µM (active)
same,CC50,[10],22 µM (active)
CCc1cnccc1CCC(=O)Nc1ccccc1C,EC50,cells [11],> 350 µM (not active)
same,EC50,cells [12],52 µM (active)
CC1CCN(S(=O)(=O)c2ccc3c(c2)c(=O)c(C(=O)NC2CCCC2)cn3C)CC1,IC50,[1],12 µM (active)
COc1cccc(CNc2nc(NCC3CC3)nc3ccsc23)c1,AC50,[5],5.86 µM (active)
same,AC50,[6],43 µM (active)
same,AC50,[7],11.2 µM (active)
COc1cc(OC)cc(N(C(=O)CNC(=O)c2cccs2)C(C(=O)NCC2CCCO2)c2ccc(OC)c(OC)c2)c1 (stereo not given),EC50,[13],> 53 µM (inactive)
Cc1snc(SCC(=O)NN=C(N)COc2cccc(C(F)(F)F)c2)c1C#N,EC50,cells [11],> 350 µM (not active)
same,EC50,cells [12],> 350 µM (not active)
Cn1nnnc1SCC1=C(C(=O)O)N2C(=O)C(NC(=O)C3CC3c3ccccc3)C2SC1 (stereo not given),IC50,[14],11.8 µM (active)
O=C(Nc1cccc(S(=O)(=O)NC2=NCCC2)c1)c1cc(Cl)ccc1[N+](=O)[O-],IC50,[1],11.8 µM (active)
C[C@@H]1CN([C@@H](C)CO)C(=O)c2cccc(NS(=O)(=O)c3ccccc3)c2O[C@@H]1CN(C)Cc1ccc(Cl)c(Cl)c1,AC50,[2],3.86 µM (active)
same,AC50,[15],2.93 µM (active)
same,AC50,[16],4.27 µM (active)
